In experiment [1] the target is Tyrosine-protein phosphatase non-receptor type 1 (Homo sapiens, UniProt P18031, I219A). As to the kind of experiment: Inhibition of PTP1B I219A mutant.
Experiment [2] concerns the target T1, Tyrosine-protein phosphatase non-receptor type 1 (Homo sapiens, UniProt P18031).
T1 sequence (P18031 whole entry): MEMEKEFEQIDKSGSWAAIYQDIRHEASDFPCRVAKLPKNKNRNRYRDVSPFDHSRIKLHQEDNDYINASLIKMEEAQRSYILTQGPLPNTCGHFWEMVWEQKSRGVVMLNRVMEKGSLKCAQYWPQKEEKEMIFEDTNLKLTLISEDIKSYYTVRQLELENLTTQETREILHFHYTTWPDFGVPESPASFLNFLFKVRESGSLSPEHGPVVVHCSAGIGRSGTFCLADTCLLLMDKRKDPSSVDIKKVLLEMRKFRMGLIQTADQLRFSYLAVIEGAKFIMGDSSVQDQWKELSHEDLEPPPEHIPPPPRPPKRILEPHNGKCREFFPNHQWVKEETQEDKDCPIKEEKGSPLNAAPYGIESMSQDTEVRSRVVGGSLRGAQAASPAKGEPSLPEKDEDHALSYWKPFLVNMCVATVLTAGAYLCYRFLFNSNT
As to the kind of experiment: Inhibition of wild type PTP1B.

For experiment [3], the target named is T2, Tyrosine-protein phosphatase non-receptor type 1 (Homo sapiens) (UniProt P18031).
T2 sequence (whole entry): T1 sequence (P18031 whole entry)
As to the kind of experiment: Selectivity for PTP1B V49A over wild type PTP1B.

The target of experiment [4] is Tyrosine-protein phosphatase non-receptor type 1 (Homo sapiens, UniProt P18031, V49A). As to the kind of experiment: Inhibition of PTP1B V49A mutant.
Sequence of Tyrosine-protein phosphatase non-receptor type 1 (Homo sapiens, UniProt P18031, V49A) (P18031 whole entry V49A): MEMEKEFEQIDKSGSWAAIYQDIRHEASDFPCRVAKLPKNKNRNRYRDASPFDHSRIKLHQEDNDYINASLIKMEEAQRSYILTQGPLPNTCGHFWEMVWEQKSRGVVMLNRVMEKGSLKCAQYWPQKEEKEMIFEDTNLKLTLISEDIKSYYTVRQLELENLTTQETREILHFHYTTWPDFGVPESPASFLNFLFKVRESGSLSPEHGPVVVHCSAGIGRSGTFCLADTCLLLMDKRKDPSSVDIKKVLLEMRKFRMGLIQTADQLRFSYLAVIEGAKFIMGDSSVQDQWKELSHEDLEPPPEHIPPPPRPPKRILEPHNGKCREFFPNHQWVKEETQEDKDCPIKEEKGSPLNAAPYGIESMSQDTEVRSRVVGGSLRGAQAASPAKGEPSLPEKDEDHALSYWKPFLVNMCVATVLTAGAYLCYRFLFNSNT
Experiment [5] relates to Tyrosine-protein phosphatase non-receptor type 1 (Homo sapiens), P18031 [UNDEFINED MUTATION]. As to the kind of experiment: Selectivity for PTP1B I219A over wild type PTP1B.
Experiment [6] addresses T3, Tyrosine-protein phosphatase non-receptor type 2 (Homo sapiens, UniProt P17706).
T3 sequence (P17706 whole entry): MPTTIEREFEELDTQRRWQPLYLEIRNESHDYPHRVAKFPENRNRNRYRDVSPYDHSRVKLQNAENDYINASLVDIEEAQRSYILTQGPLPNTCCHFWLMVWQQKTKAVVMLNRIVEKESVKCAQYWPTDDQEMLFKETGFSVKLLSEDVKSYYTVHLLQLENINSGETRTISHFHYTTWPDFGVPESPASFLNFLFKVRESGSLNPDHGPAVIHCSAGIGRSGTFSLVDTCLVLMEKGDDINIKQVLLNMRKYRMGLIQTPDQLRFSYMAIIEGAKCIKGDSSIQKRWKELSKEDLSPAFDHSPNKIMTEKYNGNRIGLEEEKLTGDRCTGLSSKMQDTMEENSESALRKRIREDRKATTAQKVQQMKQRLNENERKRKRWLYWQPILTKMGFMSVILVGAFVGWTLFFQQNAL
As to the kind of experiment: Inhibition of TCPTP.

The target of experiment [7] is Tyrosine-protein phosphatase non-receptor type 2 (Homo sapiens, UniProt P17706, I220A). As to the kind of experiment: Inhibition of TCPTP I220A mutant.
Sequence of Tyrosine-protein phosphatase non-receptor type 2 (Homo sapiens, UniProt P17706, I220A) (P17706 whole entry I220A): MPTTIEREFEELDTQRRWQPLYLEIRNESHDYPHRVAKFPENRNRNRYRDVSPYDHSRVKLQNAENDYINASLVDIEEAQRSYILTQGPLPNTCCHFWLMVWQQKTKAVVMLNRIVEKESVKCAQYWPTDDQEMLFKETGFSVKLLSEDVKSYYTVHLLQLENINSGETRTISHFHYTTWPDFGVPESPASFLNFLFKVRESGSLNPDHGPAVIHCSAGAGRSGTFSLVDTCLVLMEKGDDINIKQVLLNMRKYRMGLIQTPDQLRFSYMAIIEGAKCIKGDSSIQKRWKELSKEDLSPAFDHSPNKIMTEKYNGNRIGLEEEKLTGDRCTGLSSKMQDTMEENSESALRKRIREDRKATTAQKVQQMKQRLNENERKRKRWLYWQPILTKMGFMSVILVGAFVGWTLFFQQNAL

Where only a bound is given, the exact number is not on record here.

Broadly, the Ki is a dissociation constant, usually derived from enzyme kinetics or from competition with a known ligand. Low readings indicate higher affinity, high ones lower affinity.

Sequence of Tyrosine-protein phosphatase non-receptor type 1 (Homo sapiens, UniProt P18031, I219A) (P18031 whole entry I219A): as the sequence (P18031 whole entry V49A) above, with A49V, I219A counted along it

In the case of `CC1(C)Cc2c(sc(NC(=O)C(=O)O)c2C(=O)O)C(C)(C)C1`, the inhibitory constant (Ki) was 10 µM in experiment [1], > 300 µM in experiment [2] and 27 µM in experiment [4]. For the same compound, the Selectivity ratio in experiment [3] was > 10; in experiment [5], > 30.

As for `O=C(O)C(=O)Nc1sc2c(c1C(=O)O)CCNC2`, the Ki in experiment [1] stood at 0.23 µM; in experiment [2], 6 µM; in experiment [6], 10 µM; in experiment [7], 710 nM.

The values are drawn from ChEMBL document CHEMBL1145347, “A gatekeeper residue for inhibitor sensitization of protein tyrosine phosphatases” (Bioorg Med Chem Lett, 2006).
